Data taken from patent publication US11439622B2 (OXFORD UNIVERSITY INNOVATION LIMITED, priority 2015, dated 2022).

How the values were obtained:
Assay type in all cases: biochemical
[1] = molecular target: NDM-1 (New Delhi metallo-β-lactamase-1) (Klebsiella pneumoniae, UniProt C7C422); assay: Enzyme inhibition assay, NDM-1; details: for IC50: read-out: pIC50 NDM-1 (converted)
Description: (§1) The biological activity of the compounds of the present invention was tested using standard assay protocols.^7 The following representative enzymes NDM-1 (New Delhi metallo-β-lactamase-1), IMP-1 (Imipenemase-1) and VIM-2 (Veronese metallo-β-lactamase-2) were selected from different clinically relevant B1 metallo-β-lactamases.

[2] = molecular target: VIM-2 (Veronese metallo-β-lactamase-2) (Escherichia coli, UniProt Q5U7L7); assay: Enzyme inhibition assay, VIM-2; details: read-out: pIC50 VIM-2 (converted)
Description: as §1

IMP-1 (Imipenemase-1) = IMP-1 (Imipenemase-1) (Serratia marcescens, UniProt P52699); assay: Enzyme inhibition assay, IMP-1; details: read-out: pIC50 IMP-1 (converted)
Description: as §1

Sequence of NDM-1 (New Delhi metallo-β-lactamase-1) (C7C422 29-270, looked up, species assumed): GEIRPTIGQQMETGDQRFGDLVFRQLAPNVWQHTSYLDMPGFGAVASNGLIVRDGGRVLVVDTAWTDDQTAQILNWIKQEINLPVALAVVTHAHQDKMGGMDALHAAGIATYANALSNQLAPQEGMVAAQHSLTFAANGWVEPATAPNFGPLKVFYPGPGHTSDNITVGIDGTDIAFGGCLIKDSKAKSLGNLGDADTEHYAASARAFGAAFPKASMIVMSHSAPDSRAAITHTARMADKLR
Sequence of IMP-1 (Imipenemase-1) (P52699 19-246, looked up, species assumed): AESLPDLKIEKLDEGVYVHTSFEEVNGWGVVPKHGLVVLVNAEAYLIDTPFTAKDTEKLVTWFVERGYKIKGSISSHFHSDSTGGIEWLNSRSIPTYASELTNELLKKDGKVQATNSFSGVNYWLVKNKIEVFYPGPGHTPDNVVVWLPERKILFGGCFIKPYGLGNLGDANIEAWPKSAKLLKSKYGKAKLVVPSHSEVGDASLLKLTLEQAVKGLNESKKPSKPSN

| IC50 [1] [µM] | IC50 [2] [µM] | IC50 (IMP-1 (Imipenemase-1)) [µM] | pIC50 NDM-1 [1] | Structure (SMILES) |
| --- | --- | --- | --- | --- |
| 1.58 | 7.94 | – | – | O=C(O)c1[nH]c2c(F)cccc2c1-c1ccc(F)cc1 [Example 112, 7-fluoro-3-(4-fluorophenyl)-1H-indole-2-carboxylic acid] |
| 7.94 | – | – | – | CS(=O)(=O)c1ccc(NNC(=O)c2[nH]c3ccccc3c2-c2ccccc2)cc1 [Example 113, N′-(4-(methylsulfonyl)phenyl)-3-phenyl-1H-indole-2-carbohydrazide] |
| 3.16 | – | – | – | Cc1cccc2cc(C(=O)O)[nH]c12 [Example 114, 7-methyl-1H-indole-2-carboxylic acid] |
| 1.58 | – | – | – | Cc1cccc2c(Br)c(C(=O)O)[nH]c12 [Example 115, 3-bromo-7-methyl-1H-indole-2-carboxylic acid] |
| 15.8 | – | > 100 | – | Cc1cccc2c(C3CCNCC3)c(C(=O)O)[nH]c12 [Example 118, 7-methyl-3-(piperidin-4-yl)-1H-indole-2-carboxylic acid] |
| 6.31 | 39.8 | – | – | Cc1ccc2[nH]c(C(=O)O)c(-c3ccc(F)cc3)c2c1 [Example 121, 3-(4-fluorophenyl)-5-methyl-1H-indole-2-carboxylic acid] |
| – | > 20 | > 20 | – | CNC(=O)c1[nH]c2c(C(C)C)cccc2c1-c1ccc(S(=O)(=O)N(C)C)cc1 [Example 122, 3-(4-(N,N-dimethylsulfamoyl)phenyl)-7-isopropyl-N-methyl-1H-indole-2-carboxamide] |
| – | – | – | N.I. | CC(C)c1cccc2c(-c3ccc(S(=O)(=O)N(C)C)cc3)c(C(N)=O)[nH]c12 [Example 125, 3-(4-(N,N-dimethylsulfamoyl)phenyl)-7-isopropyl-1H-indole-2-carboxamide] |
| – | – | – | N.I. | CC(C)c1cccc2c(-c3ccc(S(=O)(=O)N(C)C)cc3)c(C#N)[nH]c12 [Example 126, 4-(2-cyano-7-isopropyl-1H-indol-3-yl)-N,N-dimethylbenzenesulfonamide] |
| 0.214 | – | – | – | CC(C)c1cccc2c(-c3ccc(S(=O)(=O)N(C)C)cc3)c(C(=O)Nc3ncco3)[nH]c12 [Example 128, 3-(4-(N,N-dimethylsulfamoyl)phenyl)-7-isopropyl-N-(oxazol-2-yl)-1H-indole-2-carboxamide] |

More lines, now with the values behind:

| Structure (SMILES) | IC50 [1] [µM] | IC50 [2] [µM] | IC50 (IMP-1 (Imipenemase-1)) [µM] | pIC50 NDM-1 [1] |
| --- | --- | --- | --- | --- |
| Cc1cccc2c(-c3cccc(S(N)(=O)=O)c3)c(C(=O)O)[nH]c12 [Example 14, 7-methyl-3-(3-sulfamoylphenyl)-1H-indole-2-carboxylic acid] | 0.0501 | 0.794 | – | – |
| Cc1cccc2c(C3=CCCC3)c(C(=O)O)[nH]c12 [Example 27, 3-(cyclopent-1-en-1-yl)-7-methyl-1H-indole-2-carboxylic acid] | 0.0794 | – | – | – |
| Cc1cccc2c(-c3ccc(Cl)cc3)c(C(=O)O)n(C)c12 [Example 35, 3-(4-chlorophenyl)-1,7-dimethyl-indole-2-carboxylic acid] | 0.501 | – | – | – |
| Cc1cc(C)cc(-c2c(C(=O)O)[nH]c3c(C)cccc23)c1 [Example 38, 3-(3,5-dimethylphenyl)-7-methyl-1H-indole-2-carboxylic acid] | 0.0398 | 0.158 | – | – |
| Cc1cccc2c(-c3ccccc3Cl)c(C(=O)O)[nH]c12 [Example 39, 3-(2-chlorophenyl)-7-methyl-1H-indole-2-carboxylic acid] | 0.126 | 0.126 | – | – |
| Cc1cccc2c(I)c(C(=O)O)[nH]c12 [Example 46, 3-iodo-7-methyl-1H-indole-2-carboxylic acid] | 0.631 | – | – | – |
| O=C(O)c1[nH]c2c(C(F)(F)F)cccc2c1-c1ccc(F)cc1 [Example 51, 3-(4-fluorophenyl)-7-(trifluoromethyl)-1H-indole-2-carboxylic acid] | 0.251 | – | 2 | – |
| CNC(=O)c1ccc(-c2c(C(=O)O)[nH]c3c(C(C)C)cccc23)cc1 [Example 87, 7-isopropyl-3-(4-(methylcarbamoyl)phenyl)-1H-indole-2-carboxylic acid] | 0.0126 | – | 0.0776 | – |
| Cc1ccc(-c2c(C(=O)O)[nH]c3c(C(C)C)cccc23)s1 [Example 89, 7-isopropyl-3-(5-methylthiophen-2-yl)-1H-indole-2-carboxylic acid] | 0.0269 | – | 0.0214 | – |
| CC(=O)NCc1ccc(-c2c(C(=O)O)[nH]c3c(C(C)C)cccc23)cc1 [Example 90, 3-(4-(acetamidomethyl)phenyl)-7-isopropyl-1H-indole-2-carboxylic acid] | 0.0126 | – | 0.0617 | – |
| CN(C)C(=O)c1ccc(-c2c(C(=O)O)[nH]c3c(C(C)(C)C)cccc23)cc1 [Example 92, 7-(tert-butyl)-3-(4-(dimethylcarbamoyl)phenyl)-1H-indole-2-carboxylic acid] | 0.0537 | – | 0.0794 | – |
| CN(C)S(=O)(=O)c1ccc(-c2c(C(=O)O)[nH]c3c(C(C)(C)C)cccc23)cc1 [Example 93, 7-(tert-butyl)-3-(4-(N,N-dimethylsulfamoyl)phenyl)-1H-indole-2-carboxylic acid] | 0.0794 | – | 0.0851 | – |
| CC(C)c1cccc2c(-c3ccc(S(=O)(=O)N4CCOCC4)cc3)c(C(=O)O)[nH]c12 [Example 95, 7-isopropyl-3-(4-(morpholinosulfonyl)phenyl)-1H-indole-2-carboxylicacid] | 0.00269 | – | 0.024 | – |
| CC(C)c1cccc2c(-c3ccc(CNS(C)(=O)=O)cc3)c(C(=O)O)[nH]c12 [Example 96, 7-isopropyl-3-(4-(methylsulfonamidomethyl)phenyl)-1H-indole-2-carboxylic acid] | 0.00398 | – | 0.00776 | – |
| CC(C)c1cccc2c(-c3ccc(CN(C)C)cc3)c(C(=O)O)[nH]c12 [Example 97, 3-(4-((dimethylamino)methyl)phenyl)-7-isopropyl-1H-indole-2-carboxylicacid] | 0.01 | – | 0.437 | – |
| CC(C)c1cccc2c(-c3ccc(N4CCOCC4)nc3)c(C(=O)O)[nH]c12 [Example 98, 7-isopropyl-3-(6-morpholinopyridin-3-yl)-1H-indole-2-carboxylic acid] | 0.00676 | – | 0.219 | – |
| CC(C)c1cccc2c(-c3ccc(S(=O)(=O)N4CCCC4)cc3)c(C(=O)O)[nH]c12 [Example 99, 7-isopropyl-3-(4-(pyrrolidin-1-ylsulfonyl)phenyl)-1H-indole-2-carboxylic acid] | 0.000851 | – | 0.00832 | – |
| CC(C)c1cccc2c(-c3ccc(Cn4cnnn4)cc3)c(C(=O)O)[nH]c12 [Example 100, 3-(4-((1H-tetrazol-1-yl)methyl)phenyl)-7-isopropyl-1H-indole-2-carboxylic acid] | 0.0158 | – | 0.0224 | – |
| CC(C)c1cccc2c(-c3ccc(C(=O)N(C)C)cc3Cl)c(C(=O)O)[nH]c12 [Example 101, 3-(2-chloro-4-(dimethylcarbamoyl)phenyl)-7-isopropyl-1H-indole-2-carboxylic acid] | 0.0158 | – | 1.55 | – |
| O=C(O)c1[nH]c2ccccc2c1-c1ccccc1 [Example 109, 3-phenyl-1H-indole-2-carboxylic acid] | 3.16 | – | – | – |
| Cc1cccc2c(-c3ccc(F)cc3)c(C(=O)NNc3ccc(S(C)(=O)=O)cc3)[nH]c12 [Example 110, 3-(4-fluorophenyl)-7-methyl-N′-(4-(methylsulfonyl)phenyl)-1H-indole-2-carbohydrazide] | 2 | – | – | – |
